How the values were obtained:
Test in all cases: relative viability (nuclei count vs DMSO), 5 days (fraction); higher = more cells survive
Bortezomib + Vorinostat = compound: CC(C)C[C@H](NC(=O)[C@H](Cc1ccccc1)NC(=O)c1cnccn1)B(O)O [Bortezomib] + O=C(CCCCCCC(=O)Nc1ccccc1)NO [Vorinostat] (partner 1 µM)
How it was run: (§1)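 Dosing by pin tool came one day after lung cancer cell lines were seeded in 1536-well plates, using either one drug or a fixed anchor-drug dose plus five library-drug doses (not always all listed) in √10 steps. After 5 days, nuclei were counted on 4× images. Relative viability is treated-well nuclei count divided by vehicle-well nuclei count, and values are medians of duplicate plates.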

[1] = compound: CC1=CC(=NN1)NC2=CC(=NC(=N2)/C=C/C3=CC=CC=C3)N4CCN(CC4)C + CCNC(=O)c1noc(-c2cc(C(C)C)c(O)cc2O)c1-c1ccc(CN2CCOCC2)cc1 [Luminespib] (partner 0.01 µM)
How it was run: as §1

[2] = compound: CC1=CC(=NN1)NC2=CC(=NC(=N2)/C=C/C3=CC=CC=C3)N4CCN(CC4)C + COc1cccc2cc(-c3nc([C@H]4CC[C@H](C(=O)O)CC4)n4ncnc(N)c34)[nH]c12 [OSI-027] (partner 0.5 µM)
How it was run: as §1

Obatoclax + OSI-027 = compound: COC1=CC(c2cc3ccccc3[nH]2)=N/C1=C\c1[nH]c(C)cc1C [Obatoclax] + COc1cccc2cc(-c3nc([C@H]4CC[C@H](C(=O)O)CC4)n4ncnc(N)c34)[nH]c12 [OSI-027] (partner 0.5 µM)
How it was run: as §1

NCI-H2347
relative viability (Bortezomib + Vorinostat; first compound 0.0002 µM): 0.621 | relative viability (Bortezomib + Vorinostat; first compound 0.000632 µM): 0.526 | relative viability (Bortezomib + Vorinostat; first compound 0.002 µM): 0.384 | relative viability (Bortezomib + Vorinostat; first compound 0.006325 µM): 0.28 | relative viability (Bortezomib + Vorinostat; first compound 0.02 µM): 0.235 | relative viability ([1]; first compound 0.08 µM): 0.524 | relative viability ([1]; first compound 0.253 µM): 0.371 | relative viability ([1]; first compound 0.8 µM): 0.501 | relative viability ([1]; first compound 2.53 µM): 0.389 | relative viability ([1]; first compound 8 µM): 0.22 | relative viability ([2]; first compound 0.08 µM): 0.37 | relative viability ([2]; first compound 0.253 µM): 0.431 | relative viability ([2]; first compound 0.8 µM): 0.465 | relative viability ([2]; first compound 2.53 µM): 0.347 | relative viability ([2]; first compound 8 µM): 0.197 | relative viability (Obatoclax + OSI-027; first compound 0.01 µM): 0.461 | relative viability (Obatoclax + OSI-027; first compound 0.03162 µM): 0.408 | relative viability (Obatoclax + OSI-027; first compound 0.3162 µM): 0.467 | relative viability (Obatoclax + OSI-027; first compound 1 µM): 0.412

NCI-H441
relative viability (Bortezomib + Vorinostat; first compound 0.0002 µM): 0.865 | relative viability (Bortezomib + Vorinostat; first compound 0.000632 µM): 0.803 | relative viability (Bortezomib + Vorinostat; first compound 0.002 µM): 0.243 | relative viability (Bortezomib + Vorinostat; first compound 0.006325 µM): 0.138 | relative viability (Bortezomib + Vorinostat; first compound 0.02 µM): 0.141 | relative viability ([1]; first compound 0.08 µM): 0.471 | relative viability ([1]; first compound 0.253 µM): 0.466 | relative viability ([1]; first compound 0.8 µM): 0.409 | relative viability ([1]; first compound 2.53 µM): 0.31 | relative viability ([1]; first compound 8 µM): 0.142 | relative viability ([2]; first compound 0.08 µM): 0.607 | relative viability ([2]; first compound 0.253 µM): 0.501 | relative viability ([2]; first compound 0.8 µM): 0.589 | relative viability ([2]; first compound 2.53 µM): 0.226 | relative viability ([2]; first compound 8 µM): 0.179 | relative viability (Obatoclax + OSI-027; first compound 0.01 µM): 0.772 | relative viability (Obatoclax + OSI-027; first compound 0.03162 µM): 0.502 | relative viability (Obatoclax + OSI-027; first compound 0.1 µM): 0.704 | relative viability (Obatoclax + OSI-027; first compound 0.3162 µM): 0.354 | relative viability (Obatoclax + OSI-027; first compound 1 µM): 0.271

NCI-H358
relative viability (Bortezomib + Vorinostat; first compound 0.0002 µM): 0.699 | relative viability (Bortezomib + Vorinostat; first compound 0.000632 µM): 0.71 | relative viability (Bortezomib + Vorinostat; first compound 0.002 µM): 0.405 | relative viability (Bortezomib + Vorinostat; first compound 0.006325 µM): 0.0638 | relative viability (Bortezomib + Vorinostat; first compound 0.02 µM): 0.0768 | relative viability ([1]; first compound 0.08 µM): 0.35 | relative viability ([1]; first compound 0.253 µM): 0.303 | relative viability ([1]; first compound 0.8 µM): 0.261 | relative viability ([1]; first compound 2.53 µM): 0.206 | relative viability ([1]; first compound 8 µM): 0.0878 | relative viability ([2]; first compound 0.08 µM): 0.769 | relative viability ([2]; first compound 0.253 µM): 0.933 | relative viability ([2]; first compound 0.8 µM): 0.483 | relative viability ([2]; first compound 2.53 µM): 0.0714 | relative viability ([2]; first compound 8 µM): 0.0592 | relative viability (Obatoclax + OSI-027; first compound 0.01 µM): 0.736 | relative viability (Obatoclax + OSI-027; first compound 0.03162 µM): 0.871 | relative viability (Obatoclax + OSI-027; first compound 0.1 µM): 0.903 | relative viability (Obatoclax + OSI-027; first compound 0.3162 µM): 0.379 | relative viability (Obatoclax + OSI-027; first compound 1 µM): 0.199

NCI-H2405
relative viability (Bortezomib + Vorinostat; first compound 0.0002 µM): 0.977 | relative viability (Bortezomib + Vorinostat; first compound 0.000632 µM): 1.02 | relative viability (Bortezomib + Vorinostat; first compound 0.002 µM): 0.812 | relative viability (Bortezomib + Vorinostat; first compound 0.006325 µM): 0.133 | relative viability (Bortezomib + Vorinostat; first compound 0.02 µM): 0.119 | relative viability ([1]; first compound 0.08 µM): 0.845 | relative viability ([1]; first compound 0.253 µM): 0.827 | relative viability ([1]; first compound 0.8 µM): 0.655 | relative viability ([1]; first compound 2.53 µM): 0.526 | relative viability ([1]; first compound 8 µM): 0.186 | relative viability ([2]; first compound 0.08 µM): 0.619 | relative viability ([2]; first compound 0.253 µM): 0.571 | relative viability ([2]; first compound 0.8 µM): 0.651 | relative viability ([2]; first compound 2.53 µM): 0.373 | relative viability ([2]; first compound 8 µM): 0.209 | relative viability (Obatoclax + OSI-027; first compound 0.01 µM): 0.65 | relative viability (Obatoclax + OSI-027; first compound 0.03162 µM): 0.688 | relative viability (Obatoclax + OSI-027; first compound 0.3162 µM): 0.643 | relative viability (Obatoclax + OSI-027; first compound 1 µM): 0.727

HCC-15
relative viability (Bortezomib + Vorinostat; first compound 0.0002 µM): 0.864 | relative viability (Bortezomib + Vorinostat; first compound 0.000632 µM): 0.892 | relative viability (Bortezomib + Vorinostat; first compound 0.002 µM): 0.729 | relative viability (Bortezomib + Vorinostat; first compound 0.006325 µM): 0.107 | relative viability (Bortezomib + Vorinostat; first compound 0.02 µM): 0.094 | relative viability ([1]; first compound 0.08 µM): 0.497 | relative viability ([1]; first compound 0.253 µM): 0.349 | relative viability ([1]; first compound 0.8 µM): 0.444 | relative viability ([1]; first compound 2.53 µM): 0.237 | relative viability ([1]; first compound 8 µM): 0.108 | relative viability ([2]; first compound 0.08 µM): 0.665 | relative viability ([2]; first compound 0.253 µM): 0.642 | relative viability ([2]; first compound 0.8 µM): 0.549 | relative viability ([2]; first compound 2.53 µM): 0.158 | relative viability ([2]; first compound 8 µM): 0.0878 | relative viability (Obatoclax + OSI-027; first compound 0.01 µM): 0.745 | relative viability (Obatoclax + OSI-027; first compound 0.03162 µM): 0.641 | relative viability (Obatoclax + OSI-027; first compound 0.1 µM): 0.446 | relative viability (Obatoclax + OSI-027; first compound 0.3162 µM): 0.662 | relative viability (Obatoclax + OSI-027; first compound 1 µM): 0.447

From the supplement of paper PMC10307832
